Measurements from PMC6337391 (Molecules, 2019).

What was measured:
[1] = Inhibition of linoleic acid lipid peroxidation (AAPH)
Excerpt: The water soluble 2,2′-azobis(2-amidinopropane) hydrochloride (AAPH) generates in vitro free radicals through spontaneous thermal decomposition. […] Overall, chalcones a, b, and c present anti-lipid peroxidation activity. […] The inhibiting activities for the rest b chalcones ranged from 15–44%. The intermediate ethers are moderate inhibitors. […] This might be correlated with the presence of the double C=C–COCH3 group. […] Both have a long ether chain in their structure.
In an aqueous solution spectrophotometrically at 234 nm the production of conjugated diene hydro peroxide by oxidation of sodium linoleate was monitored and recorded according to our previous published experimental conditions, using 10 µL of the 16 mM sodium linoleate solution added to the UV cuvette containing 930 μL of 0.05 M phosphate buffer, pH 7.4 pre-thermostated at 37 °C, under air by the addition of 50 μL of 40 mM AAPH solution, which was used as a free radical initiator. Ten microliters (10 μL) of the appropriate solutions of the tested compounds were added in the mixture, whereas same level of DMSO was used as a blank for the measurement of lipid oxidation. The rate of oxidation at 37 °C was monitored by recording the increase in absorption at 234 nm caused by conjugated diene hydro peroxides.

[2] = Lipophilicity as RM values by RP-TLC; format: physicochemical; parameters: key: RM = log[(1/Rf) − 1]; conditions: methanol/water 70/30, SD < 10%
Excerpt: It is well-documented and discussed in the literature that lipophilicity is a very significant physicochemical property which may critically affect distribution, bioavailability, metabolic activity and elimination, all the useful characteristics for the kinetics of biologically active compounds. Thus, we attempted to determine experimentally the lipophilicity of the synthesized compounds from the RPTLC method as RM values. The method is considered to be a reliable, fast and convenient method for expressing lipophilicity. Moreover, many calculated methods were used in order to predict the logP value.
Reversed phase TLC (RP-TLC) was performed on silica gel plates impregnated with 5% (v/v) liquid paraffin in light petroleum ether. The mobile phase was a methanol/water mixture (70/30, v/v). The plates were developed in closed chromatography tanks saturated with the mobile phase at 24 °C. Spots were detected under UV light. Five individual measurements of Rf values were recorded and used for the determination of RM using the equation RM = log [(1/Rf) − 1]. (Table 3).

[3] = ABTS•+ decolorization assay
Description: The decolorization assay is used to evaluate the antioxidant activity. The ABTS^•+ cationic radical is derived from the direct oxidation of ABTS by potassium persulfate. No involvement of an intermediary radical is observed. The addition of electron-donating antioxidants reduce ABTS^•+.
Stock solutions of the tested compounds in DMSO (10 mM) were diluted. […] aliquots of each sample were added into the ABTS·^+ solution and the absorbance was recorded at room temperature. Trolox was used as a standard.

soybean lipoxygenase = target: T1, soybean lipoxygenase (Glycine max, UniProt P08170); experiment: biochemical; format: biochemical; conditions: soybean LOX, 100 μM
T1 sequence (P08170 1-839): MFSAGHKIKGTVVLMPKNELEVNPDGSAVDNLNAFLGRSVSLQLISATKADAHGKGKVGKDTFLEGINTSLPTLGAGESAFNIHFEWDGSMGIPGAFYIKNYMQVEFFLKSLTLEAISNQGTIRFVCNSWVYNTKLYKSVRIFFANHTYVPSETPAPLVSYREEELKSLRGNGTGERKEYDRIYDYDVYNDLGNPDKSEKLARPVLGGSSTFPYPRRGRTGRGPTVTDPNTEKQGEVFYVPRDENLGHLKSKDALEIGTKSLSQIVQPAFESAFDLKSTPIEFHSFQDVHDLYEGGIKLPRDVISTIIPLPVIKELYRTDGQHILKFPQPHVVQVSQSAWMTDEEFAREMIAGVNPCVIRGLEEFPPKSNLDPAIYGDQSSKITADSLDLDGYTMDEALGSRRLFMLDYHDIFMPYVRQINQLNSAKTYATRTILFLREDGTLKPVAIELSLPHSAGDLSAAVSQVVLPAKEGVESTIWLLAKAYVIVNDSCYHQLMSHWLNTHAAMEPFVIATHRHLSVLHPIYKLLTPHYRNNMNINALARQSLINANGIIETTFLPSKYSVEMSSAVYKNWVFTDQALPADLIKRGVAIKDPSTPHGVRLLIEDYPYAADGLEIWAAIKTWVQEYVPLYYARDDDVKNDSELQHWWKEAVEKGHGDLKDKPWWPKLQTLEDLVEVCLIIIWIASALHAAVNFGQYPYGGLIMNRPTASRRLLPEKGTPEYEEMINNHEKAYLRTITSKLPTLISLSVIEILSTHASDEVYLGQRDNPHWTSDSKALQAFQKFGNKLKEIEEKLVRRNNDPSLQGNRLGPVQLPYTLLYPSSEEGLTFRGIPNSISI
Excerpt: In our experiments we used soybean lipoxygenase. Designing agents to modulate activities of the variety of so closely homologous enzymes, such as different LOXs, require an intimate knowledge of their 3D structures, as well as information about metabolism of the potential xenobiotics. […] Due to lack of sufficiently-purified human enzymes most of the research has been done on soybean LOX [52, 53]. Although this enzyme is not identical to the mammalian one, it seems that there is a sufficient qualitative correlation between values for enzyme inhibition with the two enzymes.
In vitro study was evaluated as reported previously. The tested compounds as stock solutions were dissolved in DMSO. Ten microliters (10 μL) were incubated at room temperature with sodium linoleate ([…]) and 0.2 mL of enzyme solution (1/9 × 10^−4 w/v in saline) in buffer pH 9 (tris) at room temperature (final volume 1 mL). […] Several concentrations were used for the determination of IC50 values.

[4] = system: L929 mouse fibroblasts cells; experiment: Cytotoxicity, propidium iodide fluorescence method; format: cell-based; conditions: 24-h incubation
Description: The cytotoxicity of the synthesized derivatives against L929 mouse fibroblasts cells was determined using the propidium iodide (PI) fluorescence method in the presence of different concentrations (1–100 μM) of these compounds. The results are presented in Table 4 in the form of the % cell survival values as PI% for the examined compounds. […] Chalcones c7, c8, c11, and c12 follow.
L929 mouse fibroblasts cells were cultured in EMEM supplemented with 10% horse serum, 2 mM L-glutamine, 1 mM sodium pyruvate, 0.1 mM nonessential amino acids, 1.5 g/L sodium bicarbonate, and 100 μg/mL penicillin–streptomycin at 37 °C in a humidified atmosphere with 5% CO2. L929 cells were plated into 24-well plates at a density […] and allowed to attach and grow for 24 h. The supernatant in each well then replaced with medium containing various concentrations (1, 10, 20, 50 and 100 μM) of compounds a5–12, c5–12, di, and dii–dvi, which presented the more interesting results in the in vitro experiments. After 24-h incubation, the supernatant was removed and the cells were washed with PBS. The cells were detached with 0.25% trypsin, transferred to FACS tubes, and then centrifuged (1600 rpm for 5 min) and the pellet washed with PBS. After washing, the cells in the pellet were incubated with 5 μL propidium iodide (PI) solution (1 mg/mL) for 1 min. The PI fluorescence (cell death) was determined with flow cytometry, FACS Calibur, Coulter Epics XL-MCL (Beckman, Inc., Mount Holly, NJ, USA). The analysis of flow cytometry data was performed with the WinMDI analysis program (Table 4).

[5] = Reducing activity with the stable radical DPPH
Description: The chalcones were studied for the antioxidant activity (reducing activity RA%) by the use of the stable free radical 2,2-diphenyl-1-picrylhydrazyl radical (DPPH) at concentrations 0.05 mM after 20 and 60 min (Table 2). In this procedure, the dominant chemical reaction involved is the reduction of the DPPH radical by single electron transfer from the antioxidant. […] For the sake of comparison, we measured the RA% values for the intermediate double ethers d which were included in the Table 2.
To a solution of DPPH (final concentration 0.05 mM) in absolute ethanol an equal volume of the compounds solution in DMSO (stock solution 10 mM) dissolved in ethanol was added. Absolute ethanol was used as a control. The concentrations of the solutions of the compounds were 0.05 and 0.1 mM. The absorbance was recorded at 517 nm at room temperature after 20 and 60 min [29] (Table 2).

CC(=O)c1ccc(OCCCCCCCCOc2ccc(C(C)=O)cc2)cc1 [dvii, 1,1′-((octane-1,8-diylbis(oxy))bis-(4,1-phenylene))diethanone]
AAPH% @ 100 μM (anti-lipid peroxidation) [1]: 27% | RM [2]: −0.36 | ABTS•+ Inhb. % @ 100 μM [3]: No | % LOX Inhb. @ 100 μM (soybean lipoxygenase): 5%

CC(=O)c1ccc(OCCCCCCOc2ccc(C(C)=O)cc2)cc1 [dv, 1,1′-((hexane-1,6-diylbis(oxy))bis(4,1-phenylene))diethanone]
1 μM Average (% pi) ± σ [4]: 4.47 ± 0.59% | 10 μM Average (% pi) ± σ [4]: 6.83 ± 2.46% | 20 μM Average (% pi) ± σ [4]: 8.05 ± 3.58% | 50 μM Average (% pi) ± σ [4]: 9.69 ± 0.57% | 100 μM Average (% pi) ± σ [4]: 9.69 ± 0.57% | AAPH% @ 100 μM (anti-lipid peroxidation) [1]: 18% | RM [2]: −0.53 | ABTS•+ Inhb. % @ 100 μM [3]: No | % LOX Inhb. @ 100 μM (soybean lipoxygenase): 7%

O=C(/C=C/C=C/c1ccc([N+](=O)[O-])cc1)c1ccccc1O [b11, (2E,4E)-1-(2-hydroxyphenyl)-5-(4-nitrophenyl) penta-2,4-dien-1-one]
AAPH% @ 100 μM (anti-lipid peroxidation) [1]: 31% | RA% 100 μM 20 min [5]: 4% | RA% 100 μM 60 min [5]: 2% | RM [2]: −0.91 | ABTS•+ Inhb. % @ 100 μM [3]: No | % LOX Inhb. @ 100 μM (soybean lipoxygenase): 31%

CC(=O)c1ccc(OCCCCCOc2ccc(C(C)=O)cc2)cc1 [div, 1,1′-((pentane-1,5-diylbis(oxy))bis(4,1-phenylene))diethanone]
1 μM Average (% pi) ± σ [4]: 4.89 ± 0.51% | 10 μM Average (% pi) ± σ [4]: 8.56 ± 3.97% | 20 μM Average (% pi) ± σ [4]: 11.86 ± 2.98% | 50 μM Average (% pi) ± σ [4]: 17.05 ± 1.46% | 100 μM Average (% pi) ± σ [4]: 17.05 ±1.46% | AAPH% @ 100 μM (anti-lipid peroxidation) [1]: 30% | RM [2]: 0.23 | ABTS•+ Inhb. % @ 100 μM [3]: No | % LOX Inhb. @ 100 μM (soybean lipoxygenase): 17%

Nc1c2c(nc3ccccc13)CCCC2 [Tacrine, reference compound]
ABTS•+ Inhb. % @ 100 μM [3]: 88%

CN(C)c1ccc(/C=C/C=C/C(=O)c2ccc(OCCCCCCOc3ccc(C(=O)/C=C/C=C/c4ccc(N(C)C)cc4)cc3)cc2)cc1 [ev, (2E,2′E,4E,4′E)-1,1′-((hexane-1,6-diylbis(oxy))bis(4,1-phenylene))bis(5-(4-(dimethylamino)phenyl)penta-2,4-dien-1-one)]
AAPH% @ 100 μM (anti-lipid peroxidation) [1]: 14% | RA% 100 μM 20 min [5]: No | RA% 100 μM 60 min [5]: no | ABTS•+ Inhb. % @ 100 μM [3]: 25% | % LOX Inhb. @ 100 μM (soybean lipoxygenase): 7%

CC(=O)c1ccc(OCCCCOc2ccc(C(C)=O)cc2)cc1 [diii, 1,1′-((butane-1,4-diylbis(oxy))bis(4,1-phenylene))diethanone]
1 μM Average (% pi) ± σ [4]: 14.06 ± 1.36% | 10 μM Average (% pi) ± σ [4]: 20 ± 3.12% | 20 μM Average (% pi) ± σ [4]: 20.76 ± 3.51% | 50 μM Average (% pi) ± σ [4]: 32.14 ± 6.99% | 100 μM Average (% pi) ± σ [4]: 32.14 ± 6.99% | AAPH% @ 100 μM (anti-lipid peroxidation) [1]: 29% | RM [2]: −0.37 | ABTS•+ Inhb. % @ 100 μM [3]: No | % LOX Inhb. @ 100 μM (soybean lipoxygenase): 41%

CN(C)c1ccc(/C=C/C=C/C(=O)c2ccc(OCCCCCCCCOc3ccc(C(=O)/C=C/C=C/c4ccc(N(C)C)cc4)cc3)cc2)cc1 [evii, (2E,2′E,4E,4′E)-1,1′-((octane-1,8-diylbis(oxy))bis(4,1-phenylene))bis(5-(4-(dimethylamino)phenyl)penta-2,4-dien-1-one)]
AAPH% @ 100 μM (anti-lipid peroxidation) [1]: 6% | RA% 100 μM 20 min [5]: No | RA% 100 μM 60 min [5]: no | ABTS•+ Inhb. % @ 100 μM [3]: 88% | % LOX Inhb. @ 100 μM (soybean lipoxygenase): 12%

CC(Cc1ccc(O)c(O)c1)C(C)Cc1ccc(O)c(O)c1 (centres unmarked) [NDGA, Nordihydroguaiaretic acid, reference compound]
RA% 100 μM 20 min [5]: 81% | RA% 100 μM 60 min [5]: 83%
